Experimental data: patent US20040097544A1, “Use of an inhibitor of the Na+/H+ exchanger for the production of a medicament for the treatment or prophylaxis of disturbances of the central nervous system” (Hoechst Marion Roussel Deutschland GMBH, priority 1997, published 2004)

Test system: CA3 neurons of the hippocampus
Experiment: Decrease in neuronal excitability on hippocampus slice preparations of CA3 neurons, intracellular leads
Type: cell-based, guinea-pigs
Description: In the model of CA3 neurons in hippocampus tissue slices, NHE inhibitors with their antiepileptic and antipsychotic therapy potential inhibit epileptiform discharges. Hyperexcitability of neurons in the form of so-called epileptiform discharges was triggered by the action of bicuculline, caffeine or low magnesium concentrations. […] The decrease in neuronal excitability was tested on slice preparations of CA3 neurons of the hippocampus (guinea-pigs). The excitation-inhibiting action of cariporide (HOE 642) was investigated in 8 experiments. The neuronal excitability was assessed with intracellular leads with the aid of the spontaneous bioelectric activity and the pharmacologically produced epileptiform activity which had been induced by bicuculline, caffeine or absence of magnesium.

With `CC(C)c1ccc(C(=O)NC(=N)N)cc1S(C)(=O)=O` [cariporide] the “inhibition of the epileptiform discharges” value (CA3 neurons in hippocampus tissue slices, discharges triggered by bicuculline, caffeine or low magnesium concentrations) was “marked inhibition”, the “duration of the reduction of spontaneous action potential and paroxysmal depolarization frequency” value (after wash-in of 0.1-0.5 mM cariporide) was “more than 45 minutes” and the “reduction of the frequency of the spontaneous action potentials” value (after wash-in of 0.1-0.5 mM cariporide, reversible, 8 experiments) was 30-80%. The “reduction of the frequency of periodic paroxysmal depolarization” value (after wash-in of 0.1-0.5 mM cariporide, reversible, epileptiform activity induced by bicuculline, caffeine or absence of magnesium, 8 experiments) was 30-80%.
